In US10711001B2, “Macrocylic ligands with picolinate group(s), complexes thereof and also medical uses thereof” (GUERBET, priority 2015, dated 2020):
Where two headings read alike, the source gives them in different places. Marks after values point to notes of the source that are not given here.

How the values were obtained:
[1] = pM = −log[M] calculated from protonation and stability constants; assay type: physicochemical; conditions: calculated from the constants with CL = 10 × CM = 10^−5 M at pH 7.4
Source text: The constant pM=-log[M] is used for this purpose. […] The ligand […]04214 has a p(Y) of 17.3, which is higher than that of PCTA (p(Y)=17.0), of […])=16.8) and of […])=16.9).

[2] = cited from earlier work
[3] = Y^3+, cited from earlier work
[4] = Complexation kinetics of the ligands with yttrium by UV-visible spectroscopy; assay type: physicochemical
Procedure: The formation of the yttrium(III) complexes of […] were studied in an aqueous solution of acetate buffer (C=0.150 M) at 25° C. under pseudo-first-order conditions.
The complexation kinetics of the ligands Pc1a2pa sym P04213, Pc1a2pa asym P04214 and Pc2a1pa sym P04218 with yttrium were studied at pH 3.8 and pH 5.5 in acetate buffer medium by UV-visible spectroscopy. Placed at the absorption maximum of the complex, the increase in absorbance intensity is measured every two seconds until the maximum absorbance is reached. The decrease in intensity of the absorbance at the absorbance maximum of the ligand is monitored when the absorption band of the complex is masked by that of the ligand. For this study, the concentration of the ligands Pc1a2pa sym and Pc1a2pa asym is 4×10^−5 M and 8×10^−5 M for the ligand Pc2a1pa sym. At pH 5.5 and 3.8, the ligand Pc1a2pa sym has the fastest complexation kinetics, with total complexation in 30 and 400 seconds, respectively. For the ligands Pc1a2pa asym and Pc2a1pa sym, the complexation is complete in 1100 seconds at pH 3.8 and 100 seconds at pH 5.5.

[5] = Protonation constants of the ligands by potentiometry; assay type: physicochemical; conditions: I = 0.1 KNO3, 25° C.
Procedure: (§1) The experiments were performed under an inert atmosphere in aqueous solutions thermostatically maintained at 25.0±0.1° C. The protonation and complexation titrations were performed in a jacketed glass titrations cell using a Metrohm 702 SM Titrino automatic burette connected to a Metrohm 6.0233.100 combined glass electrode. The titrations were controlled automatically by software after selection of the appropriate parameters avoiding monitoring during long measurements.
The titrant is an approximately 0.1 M KOH solution prepared from an analytical-grade commercial vial and its exact concentration is obtained by applying the Gran method by titrating with a standard HNO3 solution.
(§2) The ligand solutions were prepared at approximately 2.0×10^−3 M and the Cu^2+, Pb^2+ and y^3+ solutions at approximately 0.04 M from analytical-grade chloride salts and standardized by complexometric titration with H4edta (ethylenediaminetetraacetic acid)^1. The solution to be titrated contains approximately 0.05 mmol of ligand in a volume of 30.00 mL, the ionic strength of which was maintained at 0.10 M using KNO3 as electrolyte. 1.2 equivalents of metal cation (Cu^2+ or Pb^2+) were added to the ligand (0.05 mmol) during the standardization titrations of the ligand solution.
The electromotive force of the solution was measured after calibration of the electrode by titration of a standard […] HNO3 solution. The [H^+] of the solutions was determined by measuring the electromotive force of the cell, E=E^o′+Q log [H^+]+Ej. The term “pH” is defined by −log[H^+]. E^o′ and Q are determined by the acidic region of the calibration curves. The liquid junction potential, Ej, is negligible under the experimental conditions used. The value of Ke=[H^+][OH^−] is 10^−13.78.
(§3) The potentiometric data were refined with the Hyperquad software^2 and the speciation diagrams were plotted using the HySS software^3.
(§4) The overall equilibrium constants βiH and βMmHhLl are defined by βMmHhLl=[MmHhLl]/[M]m[H]h[L]l, (βiH=[HhLl]/[H]h[L]l and βMH−1L=βML(OH)×Ke). The differences, in log units, between the protonation (or hydrolysis) values and the non-protonation constants give the intermediate reaction constants (log K) (with KMmHhLl=[MmHhLl]/[MmHh-1Ll][H]). The errors indicated are the standard deviations calculated by the adjustment program from all of the experimental data for each system.
Four protonation constants were determined for the ligands Pc1a2pa sym P04213, Pc1a2pa asym P04214, Pc2a1pa sym P04216 and Pc3pa P04221. These values are coherent with those determined for PCTMB (phosphonic acid, P,P′,P″-[3,6,9,15-tetraazabicyclo[9.3.1]pentadeca-1(15),11,13-triene-3,6,9-triyltris(methylene)]tris-, P,P′,P″-tributyl ester) and also with those described in the literature especially for PCTA (3,6,9,15-tetraazabicyclo[9.3.1]pentadeca-1(15),11,13-triene-3,6,9-triacetic acid), EDTA (ethylenediaminetetraacetic acid) and DOTA (1,4,7,10-tetraazacyclododecane-1,4,7,10-tetraacetic acid).

[6] = Relaxivity of the gadolinium complexes; assay type: physicochemical; conditions: gadolinium complex of the ligand, water, 37° C.
Procedure: The relaxivity studies were performed on the gadolinium complexes of the ligands P04218, P04216 and P04213, on Minispec Mq-20 and Minispec Mq-60 machines (Brüker, Karlsruhe, Germany) at 20 MHz (0.47 T) and 60 MHz (1.4 T) in water at 37° C.
For each complex prepared previously, a [Gd] concentration range extending from 0.5 to 5 mM was prepared and the values T1 and T2 of each of these solutions were then measured to determine the relaxivity values r1 and r2 by means of equation 1. For each of the ligands, a trend curve whose correlation coefficient was equal to or very close to 1 was obtained, which made it possible to check equation 1 and to validate the quality of the measurements taken. The curves plotted make it possible to determine the relaxivity value “r” which corresponds to coefficient “a” of the equation for the straight line “ax+b”.

[7] = Stability constants of the yttrium complexes by potentiometry; assay type: physicochemical; conditions: Y^3+
Procedure: as §1, §2
0.9 equivalent of metal cation (Y^3+) was added to the ligand during the complexation titration methods.
as §3, §4
The thermodynamic protonation and stability constants of the complexes were determined by potentiometry at 25° C. with control of the ionic strength (I=0.1 M KNO3). Refinement of the titration curves with the HyperQuad software makes it possible to determine the overall constants (log β), from which the partial constants (log K) are calculated.
The stability constants of the ligands Pc1a2pa sym P04213, Pc1a2pa asym P04214 et Pc2a1pa sym P04218 and P04221 with yttrium were determined by direct potentiometric titration. The log KYL constant values for the ligands Pc1a2pa sym, Pc1a2pa asym and Pc2a1pa sym are, respectively, 19.78, 19.49 and 19.28, and the log KYLH^−1 constant values are 11.84, 11.79 and 10.60.

[8] = direct potentiometric titration, 25° C., I=0.1 M KNO3
[9] = determined by competition with EDTA, 0.1M KNO3

Compound | pY (pM = −log[M]) [1] | log Ki^H [H2L]/[HL][H] [5] | log Ki^H [H3L]/[H2L][H] [5] | log Ki^H [H4L]/[H3L][H] [5] | log Ki^H [HL]/[L][H] [5] | Relaxivity r1 ([6]; 20 MHz (0.47 T)) | Relaxivity r1 ([6]; 60 MHz (1.4 T)) | log KMHiL [ML]/[MLOH][H] (log KYLH^−1) [7, 8] | log KMHiL [ML]/[M][L] (log KYL) [7, 8] | time to total complexation with yttrium ([4]; pH 3.8, acetate buffer) [s] | time to total complexation with yttrium ([4]; pH 5.5, acetate buffer) [s] | further results
O=C(O)CN1CCN(CC(=O)O)CCN(CC(=O)O)CCN(CC(=O)O)CC1 [DOTA, 1,4,7,10-tetraazacyclododecane-1,4,7,10-tetraacetic acid] | 18.8 |  |  |  |  |  |  |  |  |  |  | log Ki^H [H2L]/[HL][H] ([2]; I = 0.1 Me4NNO3): 9.76; log Ki^H [H3L]/[H2L][H] ([2]; I = 0.1 Me4NNO3): 4.56; log Ki^H [H4L]/[H3L][H] ([2]; I = 0.1 Me4NNO3): 4.09; log KMHiL [ML]/[M][L] ([3]; Ref 7, 0.1M NMe4NO3): 24.9 ^h
O=C(O)CN(CCN(CC(=O)O)CC(=O)O)CC(=O)O [EDTA, ethylenediaminetetraacetic acid] | 16.6 |  |  |  |  |  |  |  |  |  |  | log Ki^H [H2L]/[HL][H] ([2]; I = 0.1 KNO3): 6.16; log Ki^H [H3L]/[H2L][H] ([2]; I = 0.1 KNO3): 2.71; log Ki^H [H4L]/[H3L][H] ([2]; I = 0.1 KNO3): 2.0; log Ki^H [HL]/[L][H] ([2]; I = 0.1 KNO3): 10.22; log KMHiL [ML]/[M][L] ([3]; Ref 5, 0.1M NMe4Cl): 18.5 ^d
O=C(O)CN1CCN(CC(=O)O)Cc2cccc(n2)CN(CC(=O)O)CC1 [PCTA, 3,6,9,15-tetraazabicyclo[9.3.1]pentadeca-1(15),11,13-triene-3,6,9-triacetic acid] | 17.0 |  |  |  |  |  |  |  |  |  |  | log Ki^H [H2L]/[HL][H] ([2]; I = 1.0 KCl): 7.35; log Ki^H [H3L]/[H2L][H] ([2]; I = 1.0 KCl): 3.83; log Ki^H [H4L]/[H3L][H] ([2]; I = 1.0 KCl): 2.12; log Ki^H [H5L]/[H4L][H] ([2]; I = 1.0 KCl): 1.29; log Ki^H [HL]/[L][H] ([2]; I = 1.0 KCl): 11.36; log KMHiL [MHL]/[ML][H] ([3]; Ref 3, 1.0M KCl): 1.81; log KMHiL [ML]/[MLOH][H] ([3]; Ref 3, 1.0M KCl): 11.10; log KMHiL [ML]/[M][L] ([3]; Ref 3, 1.0M KCl): 20.28
CCCCOP(=O)(O)CN1CCN(CP(=O)(O)OCCCC)Cc2cccc(n2)CN(CP(=O)(O)OCCCC)CC1 [PCTMB, phosphonic acid, P,P′,P″-[3,6,9,15-tetraazabicyclo[9.3.1]pentadeca-1(15),11,13-triene-3,6,9-triyltris(methylene)]tris-, P,P′,P″-tributyl ester, reference compound] | 16.7 | 5.28 | 1.72 |  | 11.16 |  |  |  |  |  |  | log KMHiL [MHL]/[ML][H] [7, 9]: 3.45; log KMHiL [ML]/[MLOH][H] [7, 9]: 9.10; log KMHiL [ML]/[M][L] [7, 9]: 19.49

The next lines start with results.

pY (pM = −log[M]) [1] | log Ki^H [H2L]/[HL][H] [5] | log Ki^H [H3L]/[H2L][H] [5] | log Ki^H [H4L]/[H3L][H] [5] | log Ki^H [HL]/[L][H] [5] | Relaxivity r1 ([6]; 20 MHz (0.47 T)) | Relaxivity r1 ([6]; 60 MHz (1.4 T)) | log KMHiL [ML]/[MLOH][H] (log KYLH^−1) [7, 8] | log KMHiL [ML]/[M][L] (log KYL) [7, 8] | Compound | time to total complexation with yttrium ([4]; pH 3.8, acetate buffer) [s] | time to total complexation with yttrium ([4]; pH 5.5, acetate buffer) [s] | further results
16.8 | 5.58 | 4.23 | 3.01 | 11.30 | r1 = 1.9 mmol^−1s^−1 | r1 = 1.6 mmol^−1s^−1 | 11.84 | 19.78 | O=C(O)CN1CCN(Cc2cccc(C(=O)O)n2)Cc2cccc(n2)CN(Cc2cccc(C(=O)O)n2)CC1 [Ligand P04213] | 400 | 30 | 
17.3 | 6.73 | 3.86 | 2.98 | 10.50 |  |  | 11.79 | 19.49 | O=C(O)CN1CCN(Cc2cccc(C(=O)O)n2)CCN(Cc2cccc(C(=O)O)n2)Cc2cccc(n2)C1 [Ligand P04214] | 1100 | 100 | 
 |  |  |  |  | r1 = 3.7 mmol^−1s^−1 | r1 = 3.2 mmol^−1s^−1 |  |  | O=C(O)CN1CCN(CC(=O)O)Cc2cccc(n2)CN(Cc2cccc(C(=O)O)n2)CC1 [Ligand P04216] |  |  | 
16.9 | 7.38 | 3.95 | 2.15 | 10.43 | r1 = 3.9 mmol^−1s^−1 | r1 = 3.2 mmol^−1s^−1 | 10.60 | 19.28 | O=C(O)CN1CCN(Cc2cccc(C(=O)O)n2)CCN(CC(=O)O)Cc2cccc(n2)C1 [Ligand P04218] | 1100 | 100 | 
 | 5.95 | 3.82 | 2.98 | 10.03 |  |  |  |  | O=C(O)c1cccc(CN2CCN(Cc3cccc(C(=O)O)n3)Cc3cccc(n3)CN(Cc3cccc(C(=O)O)n3)CC2)n1 [Ligand P04221] |  |  | 
14.7 |  |  |  |  |  |  | 11.02 | 16.42 | O=C([O-])c1cccc(CN2CCN(Cc3cccc(C(=O)[O-])n3)Cc3cccc(n3)CN(Cc3cccc(C(=O)[O-])n3)CC2)n1.[Y+3] [Ligand P04222] |  |  | log KMHiL [MHL]/[ML][H] [7, 8]: 3.11
